Earlier results on one compound are cited in US11779591B2, “Compositions containing decitabine, 5azacytidine and tetrahydrouridine and uses thereof” (Epidestiny, Inc., priority 2015, dated 2023).

The conditions of the series: rapid deamination by CDA.

In the case of `Nc1ccn([C@@H]2O[C@H](CO)[C@@H](O)[C@@H]2[18F])c(=O)n1` [FAC, 1-(2′-deoxy-2′-[18F]-fluoro-β-D-arabinofuranosyl)cytosine], the “distribution into solid tissues such as the liver and kidneys” value was “did not adequately distribute into solid tissues”.
